Experimental data: a compilation of properties of binary mixtures (doi:10.1007/s10953-018-0732-1)

Experiment: xn = mol fraction of the nth substance listed
Settings: 101.3 kPa

c1c[nH]cn1 + CCCCCC[N+]1(C)CCCC1.O=S(=O)([N-]S(=O)(=O)C(F)(F)F)C(F)(F)F
viscosity (323.15 K, x2 = 0.5): 23.8 mPa·s | viscosity (333.15 K, x2 = 0.5): 16 mPa·s

CCCC[P+](CCCC)(CCCC)CCCC.CS(=O)(=O)[O-] + c1c[nH]cn1
viscosity (303.05 K, x1 = 0.5): 176 mPa·s | viscosity (323.05 K, x1 = 0.5): 61 mPa·s | viscosity (333.05 K, x1 = 0.5): 40.2 mPa·s | viscosity (343.05 K, x1 = 0.5): 29.5 mPa·s

c1c[nH]cn1 + CC(C)C[P+](C)(CC(C)C)CC(C)C.Cc1ccc(S(=O)(=O)[O-])cc1
viscosity (303.09 K, x2 = 0.5): 357 mPa·s | viscosity (323.07 K, x2 = 0.5): 100 mPa·s | viscosity (333.11 K, x2 = 0.5): 63 mPa·s | viscosity (343.1 K, x2 = 0.5): 43.3 mPa·s | viscosity (353.08 K, x2 = 0.5): 32.8 mPa·s

c1c[nH]cn1 + CCCC[N+]1(C)CCCC1.O=S(=O)([N-]S(=O)(=O)C(F)(F)F)C(F)(F)F
viscosity (323.15 K, x2 = 0.5): 18.6 mPa·s | viscosity (333.15 K, x2 = 0.5): 13.5 mPa·s | viscosity (343.15 K, x2 = 0.5): 9.7 mPa·s | viscosity (353.15 K, x2 = 0.5): 7.9 mPa·s
